According to US6284910A, “Farnesyl pyrophosphate analogs” (University of Kentucky Research Foundation, priority 1999, dated 2001):
Entries after “also recorded” stand apart in the source; their conditions may differ.

Tests used:
Xenopus laevis oocytes = assay: Xenopus laevis oocyte maturation assay (GVBD) with oncogenic H-Ras in mevinolin-treated oocytes; assay type: cell-based
Source text: Recently, a novel methodology involving the microinjection of known amounts of Ras into Xenopus oocytes has been described (see references 24, 45, infra), thereby permitting a quantitative structure-function analysis of H-Ras farnesyl-group for signal transduction in vivo. The approach makes use of enzymatic methods to attach structurally related farnesyl analogs onto the prenylation site of H-Ras combined with microinjection procedures to study their in vivo function. Oocytes are naturally arrested at the G2-M boundary of the first meiotic cell division. (See reference 80, infra). When microinjected with oncogenic H-Ras, oocytes reenter the cell cycle, which is monitored by germinal vesicle breakdown (GVBD) by the appearance of a white spot in the animal hemisphere. GVBD is accompanied by activation of the mitogen-activated protein kinase (MAPK) cascade. (See 81, 82, infra). […] (See references 24, 45, infra). These biochemical effects are strictly dependent on in vivo farnesylation of the injected H-Ras protein since mutation of the CaaX prenylation motif, blocking isoprenoid biosynthesis, and inhibition of FTase in oocytes all suppress these activities. (See references 83-85, infra). Thus, the system provides a method to study the in vivo role of prenylation by analyzing the ability of FPP analogues to rescue H-Ras biological functions in isoprenoid-depleted oocytes. […] Oocytes were isolated from X. laevis females and allowed to recover overnight. (See 24, 45, infra).

FTase = FTase (Rattus norvegicus, UniProt Q02293+Q04631); assay: Inhibition of FTase-catalyzed transfer of [^3 H]AGPP to p21^H-ras; assay type: biochemical; parameters: H-Ras is only the protein substrate; details: non-radiolabeled compound, time and concentration dependent transfer
Experimental: (§1) Assay for Farnesyltransferase Activity--Farnesyltransferase activity was assayed by measuring the amount of [^3 H]farnesyl or [^3 H]anilinogeranyl transferred from [^3 H]FPP or [^3 H]AGPP to recombinant p21^H-ras, as described previously (31). Unless otherwise stated, each reaction mixture contained the following components in a final volume of 25 μl: 50 mM Tris (pH 7.4), 20 mM KCl, 0.2% octyl β-glucopyranoside, 1 mM dithiothreitol, 10-20 ng recombinant FTase, 5 μM p21^Ha-ras, 3 mM MgCl2, 50 μM ZnCl2, and 0.6 μM [^3 H]FPP (33,000 dpm/pmol; American Radiochemical Co.) or 0.1-5 μM [^3 H]AGPP (37,400 dpm/pmol). Following incubation for the indicated times at 37° C., the amount of [^3 H]prenyl transferred was measured by ethanol-HCl precipitation and filtration on glass fiber filters with modification as previously described (19). A blank value was determined in parallel incubation mixtures containing no enzyme. This blank value was subtracted from each reaction before calculating pmol [^3 H]prenyl transferred.
The observed inhibition kinetics could be a manifestation of the ability of AGPP to act as an alternative substrate for FTase. To evaluate the potential of AGPP to serve as a substrate of FTase, [^3 H]-AGPP was prepared by a similar route as described above, incorporating tritium with a specific activity of 17 Ci/mmol (synthesis to be reported elsewhere). […] The incorporated radioactivity was detected as a band of the expected molecular weight of farnesylated p21^H-ras on SDS-polyacrylamide gels (FIG. 4A, inset). […] The concentration of [^3 H]AGPP that gave half-maximal reaction velocity was approximately 0.5 μM (FIG. 4B).

recombinant GGTase I = molecular target: T1, recombinant GGTase I (Rattus norvegicus, UniProt P53610+Q04631); assay: Inhibition of CAAX GGTase I transfer of [^3 H]geranylgeranyl from [^3 H]GGPP to H-Ras-CVLL; assay type: biochemical
T1 construct: 6xHis (N); made in house; host or cells: Sf9 insect cells (baculovirus)
Experimental: The assay mixtures contained (in a final volume of 25 μl) various components as described in "Experimental Procedures". After incubation for 15 min at 37° C., the amount of [^3 H]prenyl group transferred to the appropriate protein substrate [H-Ras (CVLS) for FTase and H-Ras (CVLL) for CAAX GGTase] was measured by precipitation with ethanol-HCl. The assays contained 10 ng recombinant rat FTase, 5 μM H-Ras, and 0.6 μM [^3 H]FPP (33,000 dpm/pmol) or 100 ng recombinant rat CAAX GGTase, 5 μM H-Ras CVLL, and 1 μM [^3 H]GGPP (33,000 dpm/pmol) and the indicated concentration of unlabeled AGPP. […] Each value is the average of duplicate incubations and is representative of two separate experiments.
Unless otherwise stated, each reaction contained the following components in a final volume of 25 μl: 50 mM Tris-HCl (pH 7.4), 5 mM dithiothreitol, 20 μM Zwittergent (3-14), 1 μM [^3 H]GGPP (33,000 dpm/pmol; American Radiochemical Co.), 5 μM p21^H-ras CVLL, 5 μM ZnCl2, 5 mM MgCl2, 100 ng recombinant CAAX GGTase-1, and the indicated amount of unlabeled AGPP. Following incubation at 37° C. for 15 min, the amount of [^3 H]geranylgeranyl transferred was measured by ethanol-HCl precipitation followed by filtration on glass fiber filters. A blank value was determined in parallel incubation mixtures containing no enzyme and was subtracted from each reaction.

[1] = molecular target: T2, recombinant rat brain FTase (Rattus norvegicus, UniProt Q02293+Q04631); assay: Inhibition of FTase-catalyzed transfer of [^3 H]farnesyl from [^3 H]FPP to H-Ras; assay type: biochemical
T2 construct: 6xHis (N); made in house; host or cells: Sf9 insect cells (baculovirus)
Experimental: FIG. 2. Differential Inhibition of Farnesyltransferase and CAAX Geranylgeranyltransferase by AGPP. The assay mixtures contained (in a final volume of 25 μl) various components as described in "Experimental Procedures". After incubation for 15 min at 37° C., the amount of [^3 H]prenyl group transferred to the appropriate protein substrate [H-Ras (CVLS) for FTase and H-Ras (CVLL) for CAAX GGTase] was measured by precipitation with ethanol-HCl. The assays contained 10 ng recombinant rat FTase, 5 μM H-Ras, and 0.6 μM [^3 H]FPP (33,000 dpm/pmol) or 100 ng recombinant rat CAAX GGTase, 5 μM H-Ras CVLL, and 1 μM [^3 H]GGPP (33,000 dpm/pmol) and the indicated concentration of unlabeled AGPP. The 100% of control values were 1.1 and 5.5 pmol of [^3 H]farnesyl or [^3 H]geranylgeranyl transferred per tube. Each value is the average of duplicate incubations and is representative of two separate experiments.
FIG. 3. Inhibition of Farnesyltransferase by AGPP and I-AGPP. The enzymatic activity was measured in the presence of the various concentrations of either AGPP or I-AGPP as described in […]. The 100% control values were 1.9 and 2 pmol. Each value is the average of duplicate incubations and is representative of three separate experiments.
as §1
Inhibition of Farnesyltransferase by AGPP--AGPP was tested for its ability to inhibit recombinant rat brain FTase activity in vitro. AGPP inhibited FTase in a concentration dependent manner with an IC50 value of 0.6 μM (FIG. 2).
Kinetic analyses were carried out to investigate the mechanism of FTase inhibition by AGPP. […] The same Km value was observed when the Lineweaver-Burke plot was analyzed under different Ras and AGPP concentrations in the presence of a constant concentration of FPP. […] AGPP inhibition is reversible, since transfer of [^3 H]-FPP by FTase to Ras was restored by isolating the farnesyltransferase by gel filtration chromatography after preincubation in the presence of 50 μM AGPP (data not shown).
The assays contained 10 ng recombinant rat FTase, 5 μM H-Ras, and 0.6 μM [^3 H]FPP (33,000 dpm/pmol) or 100 ng recombinant rat CAAX GGTase, 5 μM H-Ras CVLL, and 1 μM [^3 H]GGPP (33,000 dpm/pmol) and the indicated concentration of unlabeled AGPP. The 100% of control values were 1.1 and 5.5 pmol of [^3 H]farnesyl or [^3 H]geranylgeranyl transferred per tube.

Compound: C/C(=C\COP(=O)(O)OP(=O)(O)O)CC/C=C(\C)CNc1ccccc1 [AGPP, (E,E)-8-Aniline-3,7-dimethyl-2,6-octadiene pyrophosphate]
- additional time necessary to achieve 50% maturation versus FPP (Xenopus laevis oocytes; H-Ras and AGPP, mevinolin-treated oocytes, longer than for FPP): 2 to 4 h
- rescue of oncogenic H-Ras biological activity (oocyte maturation) (Xenopus laevis oocytes; co-microinjected with oncogenic H-Ras, 50 μM mevinolin-treated oocytes): rescues the biological activity of oncogenic H-Ras in isoprenoid depleted oocytes with delayed maturation kinetics relative to FPP; also recorded: rescues the ability of H-Ras to induce oocyte maturation in mevinolin-treated cells
- effect when given without H-Ras (Xenopus laevis oocytes; compound alone): neither FPP nor AGPP alone displayed any biological effect
- inhibition of transfer of [^3 H]AGPP to p21^H-ras, in words (FTase): found to inhibit
- IC50 (recombinant GGTase I; 1 μM [^3 H]GGPP, 5 μM H-Ras CVLL, 37° C., 15 min): 31 µM
- GGTase I activity remaining (recombinant GGTase I; AGPP concentrations of greater than 100 μM, 15 min): approximately 20%
- selectivity: better inhibitor of FTase than GGTase I (recombinant GGTase I; FTase vs GGTase I): 50 fold
- IC50 ([1]; 0.6 μM [^3 H]FPP, 5 μM H-Ras, 37° C., 15 min): 0.6 µM
- mechanism of FTase inhibition with respect to Ha-Ras protein ([1]; constant FPP, various Ras): noncompetitive inhibitor with respect to Ha-Ras protein; also recorded: did not apparently affect the Km value for the substrate protein Ha-Ras
- mechanism of FTase inhibition with respect to FPP ([1]; double reciprocal plots, various [^3 H]FPP, constant Ras): competitive inhibitor of FTase with respect to FPP; also recorded: changed the Km value for FPP but does not alter the Vmax; also recorded: potent competitive inhibitor
- reversibility of FTase inhibition ([1]; gel filtration after preincubation with 50 μM AGPP): reversible
- inhibition of FTase, in words ([1]; in vitro, unlabeled compound): competed at essentially the same concentrations
